Experimental data: patent US7189758B2, “Glucocorticoid mimetics, methods of making them, pharmaceutical formulations, and uses thereof” (Boehringer Ingelheim Pharmaceuticals, Inc., priority 2002, dated 2007)

Experiments:
[1] = test system: glucocorticoid receptor; settings: in one or more of the above assays; assay not specified
Procedure: Evaluation of agonist or antagonist activity of compounds binding to the glucocorticoid receptor may be determined by any of the assays.
3. Modulation of Tyrosine Aminotransferase (TAT) Induction in Rat Hepatoma Cells
Testing of compounds for agonist or antagonist activity in induction of tyrosine aminotransferase (TAT) in rat hepatoma cells.
H4-II-E-C3 cells were incubated overnight in 96 well plates (20,000 cells/100 μL/well) in MEM medium containing 10% heat inactivated FBS and 1% nonessential amino acids. On the next day, cells were stimulated with the indicated concentrations of dexamethasone or test compound (dissolved in DMSO, final DMSO concentration 0.2%) for 18 hours. Control cells were treated with 0.2% DMSO. After 18 hours, the cells were lysed in a buffer containing 0.1% Triton X-100 and the TAT activity was measured in a photometric assay using tyrosine and alpha-ketoglutarate as substrates.
For measuring antagonist activity, the hepatoma cells were pre-stimulated by addition of dexamethasone (concentration ranges from 3×10^−9 M to 3×10^−8 M) shortly before the test compound was applied to the cells.
4. Modulation of MMTV-Luc Induction in HeLa Cells
Testing of compounds for agonist or antagonist activity in stimulation of MMTV-(mouse mammary tumor virus) promoter in HeLa cells. […]

[2] = target: T1, human glucocorticoid receptor (GR) complex (Homo sapiens, UniProt P04150); test: Glucocorticoid receptor competitive binding assay (fluorescence polarization, TAMRA-labeled dexamethasone probe); settings: result in words only; IC50 values not given
T1 construct: made in house; host or cells: insect cells (baculovirus expression), used as crude lysate
T1 sequence (P04150 1-777): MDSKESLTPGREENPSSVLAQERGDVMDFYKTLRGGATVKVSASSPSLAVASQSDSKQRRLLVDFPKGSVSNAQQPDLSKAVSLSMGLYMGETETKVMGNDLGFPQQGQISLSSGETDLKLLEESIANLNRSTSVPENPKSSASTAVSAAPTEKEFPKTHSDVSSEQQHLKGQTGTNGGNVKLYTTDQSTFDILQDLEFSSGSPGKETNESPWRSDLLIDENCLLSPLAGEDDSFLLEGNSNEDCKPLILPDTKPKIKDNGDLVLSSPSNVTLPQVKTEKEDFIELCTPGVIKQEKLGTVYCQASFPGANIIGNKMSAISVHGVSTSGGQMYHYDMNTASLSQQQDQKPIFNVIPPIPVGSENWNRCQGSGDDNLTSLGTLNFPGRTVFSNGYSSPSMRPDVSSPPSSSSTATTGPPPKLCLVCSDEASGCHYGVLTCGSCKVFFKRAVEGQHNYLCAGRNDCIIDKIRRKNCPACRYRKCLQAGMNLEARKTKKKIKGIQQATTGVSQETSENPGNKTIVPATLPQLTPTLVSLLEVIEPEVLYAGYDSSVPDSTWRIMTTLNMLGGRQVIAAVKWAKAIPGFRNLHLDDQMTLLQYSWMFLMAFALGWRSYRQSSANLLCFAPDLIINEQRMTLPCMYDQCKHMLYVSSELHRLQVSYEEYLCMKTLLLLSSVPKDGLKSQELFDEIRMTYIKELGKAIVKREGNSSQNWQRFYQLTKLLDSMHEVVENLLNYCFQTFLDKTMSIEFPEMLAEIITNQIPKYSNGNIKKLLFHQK
Procedure: Compounds of the invention were evaluated for binding to the steroid receptor by a fluorescence polarization competitive binding assay.
A. Glucocorticoid Receptor Competitive Binding Assay
Step 1. Characterization of the Fluorescent Probe
The wavelengths for maximum excitation and emission of the fluorescent probe should first be measured. An example of such a probe is rhodamine (TAMRA)-labeled dexamethasone.
The affinity of the probe for the steroid receptor was then determined in a titration experiment. The fluorescence polarization value of the probe in assay buffer was measured on an SLM-8100 fluorometer using the excitation and emission maximum values described above. Aliquots of expression vector lysate were added and fluorescence polarization was measured after each addition until no further change in polarization value was observed. Non-linear least squares regression analysis was used to calculate the dissociation constant of the probe from the polarization values obtained for lysate binding to the probe.
Step 2. Screening for Inhibitors of Probe Binding
This assay uses fluorescence polarization (FP) to quantitate the ability of test compounds to compete with tetramethyl rhodamine (TAMRA)-labeled dexamethasone for binding to a human glucocorticoid receptor (GR) complex prepared from an insect expression system. The assay buffer was: 10 mM TES, 50 mM KCl, 20 mM Na2MoO4.2H2O, 1.5 mM EDTA, 0.04% w/v CHAPS, 10% v/v glycerol, 1 mM dithiothreitol, pH 7.4. Test compounds were dissolved to 1 mM in neat DMSO and then further diluted to 10× assay concentration in assay buffer supplemented with 10% v/v DMSO. Test compounds were serially diluted at 10× assay concentrations in 10% DMSO-containing buffer in 96-well polypropylene plates. Binding reaction mixtures were prepared in 96-well black Dynex microtiter plates by sequential addition of the following assay components to each well: 15 μL of 10× test compound solution, 85 μL of GR-containing baculovirus lysate diluted 1:170 in assay buffer, and 50 μL of 15 nM TAMRA-labeled dexamethasone. Positive controls were reaction mixtures containing no test compound; negative controls (blanks) were reaction mixtures containing 0.7 μM to 2 μM dexamethasone. […] IC50 values were determined by iterative non-linear curve fitting of the FP signal data to a 4-parameter logistic equation.

Structure (SMILES)	activity as antagonists of the glucocorticoid receptor function [1]	activity in the GR binding assay [2]
CC(C)(CC(O)(Cc1ccccc1)C(=O)Nc1ccc2c(c1)COC2=O)c1ccccc1 (centres unmarked) [2-Benzyl-2-hydroxy-4-methyl-4-phenylpentanoic acid (1-oxo-1,3-dihydroisobenzofuran-5-yl)amide]	activity as antagonists	potent activity
CC(C)(CC(O)(CC1CCCCC1)C(=O)Nc1ccc2c(c1)COC2=O)c1ccccc1 (centres unmarked) [2-Cyclohexylmethyl-2-hydroxy-4-methyl-4-phenylpentanoic acid (1-oxo-1,3-dihydroisobenzofuran-5-yl)amide]	activity as antagonists	potent activity
CC(C)(CC(O)(Cc1ccc(F)c(F)c1)C(=O)Nc1ccc2c(c1)COC2=O)c1cc(F)ccc1O (centres unmarked) [2-(3,4-Difluorobenzyl)-4-(5-fluoro-2-hydroxyphenyl)-2-hydroxy-4-methylpentanoic acid (1-oxo-1,3-dihydroisobenzofuran-5-yl)amide]		potent activity
